{
  "source": "patent EP0603240B1",
  "about": "“SAFENING HERBICIDAL PYRAZOLYLSULFONYLUREAS” (priority 1991, dated 1993)",
  "type_in_all_cases": "in vivo",
  "key": {"corn [1]": {"test_system": "corn", "assay": "Example 1, greenhouse Procedure II: antidotes against Herbicide No. 1", "experimental": "(§1) Containers were filled and compacted with a fumigated silt loam top soil to a depth of about 1.3 cm from the top of the container. A first container was designated as an untreated control, a second container was designated as a herbicide control, and a third container was designated as a herbicide + antidote test container. Each of the containers was seeded with a crop species. A measured amount of herbicide dispersed or dissolved in acetone was applied to a measured quantity of soil. To this same quantity of soil treated with herbicide, there was added a measured amount of antidote dispersed or dissolved in acetone. The quantity of soil treated with the herbicide and antidote was thoroughly mixed to incorporate the herbicide and antidote in the soil uniformly. The seed bed in the third container of soil was covered with the soil treated with the herbicide and antidote and the container was leveled. For each test series, the seed beds of the first and second containers were likewise covered by soil layers. the cover layer of the first container was not treated with herbicide or antidote.\n(§2) The containers were then placed on a bench in a greenhouse and sub-irrigated as required for the duration of the test. […] Plant response is measured in terms of percent injury. Antidote efficacy is indicated as the difference in plant injury by the herbicide(s) without the antidote and with the antidote.\n(§3) This procedure is the same as Procedure I, but modified in the manner that after incorporation of the chemicals (herbicide and antidote) the containers with the covered seedbed were treated with an initial overhead irrigation equivalent to 0.6 cm rainfall, then subsequently sub-irrigated as required on greenhouse benches.\nIn the series of greenhouse tests described below, for routine screening purposes the herbicide/antidote compositions were tested in crop/weed combinations involving corn as the crop and either or both of the weeds barnyardgrass (Echinochloa crusgalli), a monocotyledonous weed, and velvetleaf (Abutilon theophrasti), a dicotyledonous weed. In the tables below, these weeds are indicated by the symbols \"BYG\" and \"VL\", respectively.\nThis example was designed to investigate the antidotal efficacy of a plurality of antidotes against Herbicide No. 1 in corn in the presence of barnyard grass and velvetleaf. The antidotes used in this example were Antidote Nos. 1-10, 12, 13 and 15.\nThe test in this example was conducted as described above for Procedure II. The antidotes were applied to the soil cover layer by pipet after spraying on the herbicide followed by incorporation and simulated rain."}, "corn [2]": {"test_system": "corn", "assay": "Example 14, Procedure II: Herbicide No. 1 + metolachlor (No. 12) with Antidote No. 17", "experimental": "as §1, §2, §3\nIn this example a plurality of dichloroacetamide antidotes were tested for their safening efficacy against a herbicidal composition comprising Herbicide No. […] The procedure used in this example was Procedure II above. […]"}, "[3]": {"test_system": "velvetleaf (Abutilon theophrasti)", "assay": "Example 14, Procedure II: Herbicide No. 1 + metolachlor (No. 12) with Antidote No. 17"}, "[4]": {"conditions": "Herbicide No.1 0.14 + No.12 4.48 kg/ha + Antidote No.17 0.15 kg/ha"}, "[5]": {"conditions": "Herbicide No.1 0.56 + No.12 4.48 kg/ha + Antidote No.17 0.15 kg/ha"}, "[6]": {"conditions": "Herbicide No.1 2.24 + No.12 4.48 kg/ha + Antidote No.17 0.15 kg/ha"}},
  "data": [
    {"smiles": "CC1(C)OC(c2ccco2)CN1C(=O)C(Cl)Cl", "note": "(stereo not drawn) [compound 15]", "values": [
      {"measurement": "% Injury Corn", "setting": "corn [1]; Herb. No. 1 0.14 kg/ha + antidote 2.24 kg/ha", "value": 5, "unit": "%"},
      {"measurement": "% Injury Corn", "setting": "corn [1]; Herb. No. 1 0.56 kg/ha + antidote 2.24 kg/ha", "value": 5, "unit": "%"}
    ]},
    {"smiles": "COC(=O)c1c(Cl)nn(C)c1S(=O)(=O)NC(=O)Nc1nc(OC)cc(OC)n1", "note": "[Herbicide No. 1]", "values": [
      {"measurement": "% Injury Corn", "setting": "corn [1]; Herb. No. 1 0.14 kg/ha, no antidote", "value": 5, "unit": "%"}
    ]},
    {"smiles": "CC1COc2ccccc2N1C(=O)C(Cl)Cl", "note": "(stereo not drawn) [compound 17]", "values": [
      {"measurement": "% Injury Corn", "setting": "corn [2]; [4]", "value": 15, "unit": "%"},
      {"measurement": "% Injury Corn", "setting": "corn [2]; [5]", "value": 25, "unit": "%"},
      {"measurement": "% Injury Corn", "setting": "corn [2]; [6]", "value": 80, "unit": "%"},
      {"measurement": "% Injury VL", "setting": "[3]; [4]", "value": 90, "unit": "%"},
      {"measurement": "% Injury VL", "setting": "[3]; [5]", "value": 95, "unit": "%"},
      {"measurement": "% Injury VL", "setting": "[3]; [6]", "value": 100, "unit": "%"}
    ]}
  ]
}
